# Measurements published in US20240366599A1, “HUMAN EFFICACIOUS DOSE AND DOSAGE SCHEDULE OF SPR720” (SPERO THERAPEUTICS, INC., priority 2021, published 2024).
# Assays:
# Format in all cases: in vivo, human
# [1] = Single ascending dose (SAD) study: pharmacokinetics of SPR719 after oral SPR720; settings: SPR720 1000 mg, fed vs fasted; considered non-clinically significant
# Procedure: (§1) The following study was conducted in healthy volunteers to evaluate the safety, tolerability, and pharmacokinetics of SPR720/SPR719. The study included 7 SAD cohorts, of which one was a food effect cohort. SPR720 or placebo (n=8/cohort, 3:1 randomization) were administered to subjects at doses of 100 to 2000 mg in the fasted or fed state. The cohorts administered SPR720 in the fed state were administered 1000 mg or 500 mg (healthy elderly cohort) SPR720. A schematic of the study design appears in FIG. 1.
# [2] = Multiple ascending dose (MAD) study: safety and tolerability
# Procedure: The multiple ascending dose study utilized 5 cohorts of 8 subjects. Three cohorts were administered a total daily dose of 500 mg to 1500 mg in the fasted state for 7 days. Two cohorts were administered a total daily dose of 500 mg or 1000 mg in the fed state for 14 days. Safety was also monitored throughout the study. […] This conclusion was further supported by stable SPR719 trough concentrations by Day 7 (data not shown). Mean plasma concentration/time curves are shown for the MAD cohorts at days 1 (FIG. 3A), 7 (FIG. 3B), and 14 (FIG. 3C). 2.
# [3] = Single ascending dose (SAD) study: safety and tolerability
# Procedure: as §1
# [4] = MAD Cohort 1, 500 mg 7 days, fasted, N=6
# [5] = MAD Cohort 2, 1000 mg 7 days, fasted, N=6
# [6] = MAD Cohort 3, 750 mg q12 h 7 days, fasted, N=6
# [7] = MAD Cohort 4, 500 mg 14 days, fed, N=6
# [8] = MAD Cohort 5, 1000 mg 14 days, fed, N=6
# [9] = SAD Cohort 4, 1000 mg Fasted, N=6
compound,measurement,setting,value
"CCNC(=O)Nc1nc2cc(-c3cnc(C(C)(C)OP(=O)(O)O)cn3)c(F)c([C@H]3CCCO3)c2[nH]1 [SPR720, fobrepodacin]",Food effect: plasma exposure after high fat meal relative to fasted state,[1],no significant food effect
same,Subjects reporting TEAEs,[2]; MAD 1000 mg cohorts,50.0%
same,Subjects reporting TEAEs,[2]; MAD 1500 mg (750 mg q12h) cohort,66.7%
same,Incidence of TEAE: Abdominal Pain,[2]; [4],0 Number (%) of Subjects
same,Incidence of TEAE: Diarrhea (first line),[2]; [4],2 (33.3) Number (%) of Subjects
same,Incidence of TEAE: Diarrhea (second line),[2]; [4],0 Number (%) of Subjects
same,Incidence of TEAE: Headache,[2]; [4],2 (33.3) Number (%) of Subjects
same,Incidence of TEAE: Nausea,[2]; [4],2 (33.3) Number (%) of Subjects
same,Incidence of TEAE: Vomiting,[2]; [4],1 (16.7) Number (%) of Subjects
same,Incidence of TEAE: Abdominal Pain,[2]; [5],1 (16.7) Number (%) of Subjects
same,Incidence of TEAE: Diarrhea (first line),[2]; [5],4 (66.7) Number (%) of Subjects
same,Incidence of TEAE: Diarrhea (second line),[2]; [5],2 (33.3) Number (%) of Subjects
same,Incidence of TEAE: Headache,[2]; [5],3 (50.0) Number (%) of Subjects
same,Incidence of TEAE: Nausea,[2]; [5],1 (16.7) Number (%) of Subjects
same,Incidence of TEAE: Vomiting,[2]; [5],2 (33.3) Number (%) of Subjects
same,Incidence of TEAE: Abdominal Pain,[2]; [6],0 Number (%) of Subjects
same,Incidence of TEAE: Diarrhea (first line),[2]; [6],4 (66.7) Number (%) of Subjects
same,Incidence of TEAE: Diarrhea (second line),[2]; [6],1 (16.7) Number (%) of Subjects
same,Incidence of TEAE: Headache,[2]; [6],2 (33.3) Number (%) of Subjects
same,Incidence of TEAE: Nausea,[2]; [6],3 (50.0) Number (%) of Subjects
same,Incidence of TEAE: Vomiting,[2]; [6],1 (16.7) Number (%) of Subjects
same,Incidence of TEAE: Abdominal Pain,[2]; [7],0 Number (%) of Subjects
same,Incidence of TEAE: Diarrhea (first line),[2]; [7],0 Number (%) of Subjects
same,Incidence of TEAE: Diarrhea (second line),[2]; [7],0 Number (%) of Subjects
same,Incidence of TEAE: Headache,[2]; [7],1 (16.7) Number (%) of Subjects
same,Incidence of TEAE: Nausea,[2]; [7],0 Number (%) of Subjects
same,Incidence of TEAE: Vomiting,[2]; [7],0 Number (%) of Subjects
same,Incidence of TEAE: Abdominal Pain,[2]; [8],1 (16.7) Number (%) of Subjects
same,Incidence of TEAE: Diarrhea (first line),[2]; [8],3 (50.0) Number (%) of Subjects
same,Incidence of TEAE: Diarrhea (second line),[2]; [8],0 Number (%) of Subjects
same,Incidence of TEAE: Headache,[2]; [8],0 Number (%) of Subjects
same,Incidence of TEAE: Nausea,[2]; [8],1 (16.7) Number (%) of Subjects
same,Incidence of TEAE: Vomiting,[2]; [8],0 Number (%) of Subjects
same,Subjects who discontinued study drug due to increased pancreatic enzymes,"[2]; MAD cohort 3 (750 mg q12h), asymptomatic, resolved without interventional treatment",One
same,Subjects reporting TEAEs,"[2]; MAD overall, 18 of 30 subjects who received SPR720",60.0%
same,Total number of TEAEs reported,"[2]; MAD overall, 30 subjects",101
same,Serious adverse events,[2]; MAD study,No serious adverse events
same,Severity of TEAEs,"[2]; MAD, all TEAEs",mild or moderate
same,Incidence of TEAE: Abdominal Pain,"[2]; Overall MAD SPR720, N=30",2 (6.7) Number (%) of Subjects
same,Incidence of TEAE: Diarrhea (first line),"[2]; Overall MAD SPR720, N=30",13 (42.3) Number (%) of Subjects
same,Incidence of TEAE: Diarrhea (second line),"[2]; Overall MAD SPR720, N=30",3 (10.0) Number (%) of Subjects
same,Incidence of TEAE: Headache,"[2]; Overall MAD SPR720, N=30",8 (26.7) Number (%) of Subjects
same,Incidence of TEAE: Nausea,"[2]; Overall MAD SPR720, N=30",7 (23.3) Number (%) of Subjects
same,Incidence of TEAE: Vomiting,"[2]; Overall MAD SPR720, N=30",4 (13.3) Number (%) of Subjects
same,Cases of Hy's Law,[2]; over 14 days of dosing,no cases
same,Elevations in ALT,"[2]; over 14 days of dosing, slight, asymptomatic and reversible",< 3 ×ULN
same,Tolerability,[2]; repeat daily oral doses up to 1000 mg over maximum duration of 14 days,well-tolerated
same,Incidence of TEAE: Diarrhea,"[3]; SAD 500 mg Elderly, N=6",0 Number (%) of Subjects
same,Incidence of TEAE: Headache,"[3]; SAD 500 mg Elderly, N=6",0 Number (%) of Subjects
same,Incidence of TEAE: Nausea,"[3]; SAD 500 mg Elderly, N=6",0 Number (%) of Subjects
same,Incidence of TEAE: Vomiting,"[3]; SAD 500 mg Elderly, N=6",0 Number (%) of Subjects
same,Subjects reporting TEAEs,[3]; SAD 1500 mg cohort,66.7%
same,Subjects reporting TEAEs,[3]; SAD 2000 mg cohort,100%
same,Incidence of TEAE: Diarrhea,"[3]; SAD Cohort 1, 100 mg, N=6",0 Number (%) of Subjects
same,Incidence of TEAE: Headache,"[3]; SAD Cohort 1, 100 mg, N=6",0 Number (%) of Subjects
same,Incidence of TEAE: Nausea,"[3]; SAD Cohort 1, 100 mg, N=6",0 Number (%) of Subjects
same,Incidence of TEAE: Vomiting,"[3]; SAD Cohort 1, 100 mg, N=6",0 Number (%) of Subjects
same,Incidence of TEAE: Diarrhea,"[3]; SAD Cohort 2, 250 mg, N=6",0 Number (%) of Subjects
same,Incidence of TEAE: Headache,"[3]; SAD Cohort 2, 250 mg, N=6",0 Number (%) of Subjects
same,Incidence of TEAE: Nausea,"[3]; SAD Cohort 2, 250 mg, N=6",0 Number (%) of Subjects
same,Incidence of TEAE: Vomiting,"[3]; SAD Cohort 2, 250 mg, N=6",0 Number (%) of Subjects
same,Incidence of TEAE: Diarrhea,"[3]; SAD Cohort 3, 500 mg, N=6",1 (16.7) Number (%) of Subjects
same,Incidence of TEAE: Headache,"[3]; SAD Cohort 3, 500 mg, N=6",0 Number (%) of Subjects
same,Incidence of TEAE: Nausea,"[3]; SAD Cohort 3, 500 mg, N=6",0 Number (%) of Subjects
same,Incidence of TEAE: Vomiting,"[3]; SAD Cohort 3, 500 mg, N=6",0 Number (%) of Subjects
same,Incidence of TEAE: Diarrhea,[3]; [9],0 Number (%) of Subjects
same,Incidence of TEAE: Headache,[3]; [9],1 (16.7) Number (%) of Subjects
same,Incidence of TEAE: Nausea,[3]; [9],0 Number (%) of Subjects
same,Incidence of TEAE: Vomiting,[3]; [9],0 Number (%) of Subjects
same,Incidence of TEAE: Diarrhea,"[3]; SAD Cohort 4, 1000 mg Fed, N=6",0 Number (%) of Subjects
same,Incidence of TEAE: Headache,"[3]; SAD Cohort 4, 1000 mg Fed, N=6",0 Number (%) of Subjects
same,Incidence of TEAE: Nausea,"[3]; SAD Cohort 4, 1000 mg Fed, N=6",0 Number (%) of Subjects
same,Incidence of TEAE: Vomiting,"[3]; SAD Cohort 4, 1000 mg Fed, N=6",0 Number (%) of Subjects
same,Incidence of TEAE: Diarrhea,"[3]; SAD Cohort 5, 1500 mg, N=6",0 Number (%) of Subjects
same,Incidence of TEAE: Headache,"[3]; SAD Cohort 5, 1500 mg, N=6",3 (50.0) Number (%) of Subjects
same,Incidence of TEAE: Nausea,"[3]; SAD Cohort 5, 1500 mg, N=6",4 (66.7) Number (%) of Subjects
same,Incidence of TEAE: Vomiting,"[3]; SAD Cohort 5, 1500 mg, N=6",3 (50.0) Number (%) of Subjects
same,Incidence of TEAE: Diarrhea,"[3]; SAD Cohort 6, 2000 mg, N=6",2 (33.3) Number (%) of Subjects
same,Incidence of TEAE: Headache,"[3]; SAD Cohort 6, 2000 mg, N=6",3 (50.0) Number (%) of Subjects
same,Incidence of TEAE: Nausea,"[3]; SAD Cohort 6, 2000 mg, N=6",5 (83.3) Number (%) of Subjects
same,Incidence of TEAE: Vomiting,"[3]; SAD Cohort 6, 2000 mg, N=6",5 (83.3) Number (%) of Subjects
same,Incidence of TEAE: Diarrhea,"[3]; SAD Overall SPR720, n=42",3 (7.1) Number (%) of Subjects
same,Incidence of TEAE: Headache,"[3]; SAD Overall SPR720, n=42",7 (16.7) Number (%) of Subjects
same,Incidence of TEAE: Nausea,"[3]; SAD Overall SPR720, n=42",9 (21.4) Number (%) of Subjects
same,Incidence of TEAE: Vomiting,"[3]; SAD Overall SPR720, n=42",8 (19.0) Number (%) of Subjects
same,Subjects reporting TEAEs,"[3]; SAD overall, 18 of 42 subjects",42.9%
same,Total number of TEAEs reported,"[3]; SAD overall, 42 subjects",35
same,Serious adverse events,[3]; SAD study,No serious adverse events
same,Severity of TEAEs,"[3]; SAD, all TEAEs",mild or moderate
